In patent publication US5077301A, “4-(hydroxydiphenylmethyl)-1-piperidylphenylalkane derivatives as antihistamines and methods of treatment of an allergic response” (Schaper & Bruemmer GmbH & Co. KG, priority 1989, dated 1991):
Values after ≈ are worked out from the molar mass of the structure shown.

What was measured:
[1] = system: isolated ileum of guinea pigs; assay: Spasmolysis of histamine-induced contraction on isolated guinea pig ileum, organ bath; assay type: cell-based; details: Cavia porcellus; histamine dihydrochloride as spasmogen, 0.2-2 μg/ml; at least six individual tests; read-out: ED50 on guinea pig ileum
Procedure: (§1) Experiments were carried out on the isolated ileum and on the isolated trachea of guinea pigs in a typical manner in vitro in a suitable organ bath. Histamine dihydrochloride was used as a spasmogen in a final concentration of 0.2-2 μg/ml, depending on the organ preparation. The activity of the compounds was determined from the reactive spasmolysis, i.e., the relative decrease in the force of contractions compared with zero dose. The concentration-action relation was calculated from the non-linear regression between dose and action from at least six individual tests.

[2] = system: isolated trachea of guinea pigs; assay: Spasmolysis of histamine-induced contraction on isolated guinea pig trachea, organ bath; assay type: cell-based; details: Cavia porcellus; histamine dihydrochloride as spasmogen, 0.2-2 μg/ml; at least six individual tests; read-out: ED50 on the isolated tracheal preparation
Procedure: as §1

[3] = system: histamine-induced skin weal in the mouse; assay: Duration of inhibition of histamine-induced skin weal in the mouse after a single oral dose; assay type: in vivo; details: oral administration of a comparable dose (to 6 mg/kg)
Procedure: The experiments were carried out on male NMRI mice with a body weight of 25-30 g. […] The dyestuff concentration determined by photometry in a defined area of skin can be designated a measure of the antihistamine activity.

IC50 [1]	IC50 [2]	Structure (SMILES)	antihistamine action after 4 hours [3]
0.029 µg/mL (≈ 0.0748 µM)	3.5 µg/mL (≈ 9.03 µM)	COc1cccc(CN2CCC(C(O)(c3ccccc3)c3ccccc3)CC2)c1 [[4-(Hydroxydiphenylmethyl)-1-piperidyl]-(3-methoxyphenyl)methane]	–
0.062 µg/mL (≈ 0.131 µM)	4.1 µg/mL (≈ 8.69 µM)	CC(C)(C)c1ccc(C(O)CCCN2CCC(C(O)(c3ccccc3)c3ccccc3)CC2)cc1 (stereo not drawn) [terfenadine, α-[4-(1,1-Dimethylethyl)phenyl]-4-(hydroxydiphenylmethyl)-1-piperidinobutanol]	no longer possible to measure reliably an antihistamine action
